Patent publication US9708318B2, “Bicyclic heterocycles as FGFR4 inhibitors” (Incyte Corporation, priority 2015, dated 2017)
Like-named read-outs stand apart in the source and are kept apart here.

Columns and labels:
FGFR2 = FGFR2 (Homo sapiens (Human), UniProt P21802); test: FGFR Enzymatic Assay (FRET peptide phosphorylation), FGFR2; type: biochemical
Experimental: (§1) The inhibitor potency of the exemplified compounds was measured in an enzyme assay that measures peptide phosphorylation using FRET measurements to detect product formation. Inhibitors were serially diluted in DMSO and a volume of 0.5 μL was transferred to the wells of a 384-well plate.
(§2) The enzymes were purchased from Millipore or Invitrogen.
(§3) GraphPad prism3 was used to analyze the data.

FGFR3 enzyme = FGFR3 enzyme (Homo sapiens (Human), UniProt P22607); test: FGFR Enzymatic Assay (FRET peptide phosphorylation), FGFR3; type: biochemical; settings: for FGFR1/FGFR3 IC50 ratio / FGFR4/FGFR3 IC50 ratio: FGFR3 selectivity; for IC50: read-out: FGFR3 IC50
Experimental: as §1, §3

FGFR4 = FGFR4 (Homo sapiens (Human), UniProt P22455); test: FGFR Enzymatic Assay (FRET peptide phosphorylation), FGFR4; type: biochemical; settings: for FGFR1/FGFR4 IC50 ratio / FGFR2/FGFR4 IC50 ratio / FGFR3/FGFR4 IC50 ratio: FGFR4 selectivity
Experimental: as §1, §2, §3

FGFR1 = FGFR1 (Homo sapiens (Human), UniProt P11362); test: FGFR Enzymatic Assay (FRET peptide phosphorylation), FGFR1
[1] = read-out: FGFR1 IC50, pre-incubated for 4 hours
[2] = FGFR1 IC50 (nM), pre-incubated for 4 hours
[3] = pre-incubated for 5 to 10 minutes

FGFR3 enzyme, sequence (P22607 23-806): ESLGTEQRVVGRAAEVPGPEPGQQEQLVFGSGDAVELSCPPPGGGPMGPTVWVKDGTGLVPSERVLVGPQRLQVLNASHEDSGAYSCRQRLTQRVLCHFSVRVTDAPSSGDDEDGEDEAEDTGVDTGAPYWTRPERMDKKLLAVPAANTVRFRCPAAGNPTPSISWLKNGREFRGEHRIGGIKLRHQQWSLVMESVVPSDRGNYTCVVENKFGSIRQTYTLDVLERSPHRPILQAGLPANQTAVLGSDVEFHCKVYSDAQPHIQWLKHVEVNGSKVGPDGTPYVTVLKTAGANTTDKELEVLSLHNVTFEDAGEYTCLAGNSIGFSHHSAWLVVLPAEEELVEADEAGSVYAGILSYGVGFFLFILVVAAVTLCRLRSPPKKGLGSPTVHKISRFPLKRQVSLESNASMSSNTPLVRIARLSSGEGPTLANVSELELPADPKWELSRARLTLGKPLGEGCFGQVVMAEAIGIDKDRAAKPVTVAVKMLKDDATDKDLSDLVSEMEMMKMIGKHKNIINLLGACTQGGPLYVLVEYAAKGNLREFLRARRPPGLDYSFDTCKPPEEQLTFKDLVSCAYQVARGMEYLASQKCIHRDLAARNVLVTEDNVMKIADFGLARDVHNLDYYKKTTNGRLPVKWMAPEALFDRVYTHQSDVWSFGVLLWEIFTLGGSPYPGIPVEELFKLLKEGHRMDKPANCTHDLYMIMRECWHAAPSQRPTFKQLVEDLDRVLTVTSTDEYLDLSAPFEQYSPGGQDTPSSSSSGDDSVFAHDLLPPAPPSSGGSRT
FGFR2, sequence (P21802 22-821): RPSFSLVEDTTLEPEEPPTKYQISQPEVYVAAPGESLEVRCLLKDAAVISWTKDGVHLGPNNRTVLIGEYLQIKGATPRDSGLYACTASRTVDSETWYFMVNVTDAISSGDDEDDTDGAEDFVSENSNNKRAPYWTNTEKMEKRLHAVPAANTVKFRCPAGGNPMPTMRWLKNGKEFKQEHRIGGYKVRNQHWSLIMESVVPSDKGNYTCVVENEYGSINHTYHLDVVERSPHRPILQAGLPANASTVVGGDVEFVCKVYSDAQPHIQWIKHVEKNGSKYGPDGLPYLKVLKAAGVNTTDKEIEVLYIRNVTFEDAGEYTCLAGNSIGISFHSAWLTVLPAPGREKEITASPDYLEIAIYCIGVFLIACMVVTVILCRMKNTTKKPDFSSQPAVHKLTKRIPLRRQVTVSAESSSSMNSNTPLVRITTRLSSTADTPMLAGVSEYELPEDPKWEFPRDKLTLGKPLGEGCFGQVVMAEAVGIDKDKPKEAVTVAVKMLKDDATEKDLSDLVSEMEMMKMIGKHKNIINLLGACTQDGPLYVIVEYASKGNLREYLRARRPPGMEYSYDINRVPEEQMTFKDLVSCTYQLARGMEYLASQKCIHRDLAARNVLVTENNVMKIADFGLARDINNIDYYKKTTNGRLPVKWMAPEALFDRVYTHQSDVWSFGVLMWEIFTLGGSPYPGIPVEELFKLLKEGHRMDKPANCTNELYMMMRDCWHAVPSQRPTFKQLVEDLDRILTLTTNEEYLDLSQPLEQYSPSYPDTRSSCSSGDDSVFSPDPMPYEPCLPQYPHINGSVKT
FGFR4, sequence (P22455 22-802): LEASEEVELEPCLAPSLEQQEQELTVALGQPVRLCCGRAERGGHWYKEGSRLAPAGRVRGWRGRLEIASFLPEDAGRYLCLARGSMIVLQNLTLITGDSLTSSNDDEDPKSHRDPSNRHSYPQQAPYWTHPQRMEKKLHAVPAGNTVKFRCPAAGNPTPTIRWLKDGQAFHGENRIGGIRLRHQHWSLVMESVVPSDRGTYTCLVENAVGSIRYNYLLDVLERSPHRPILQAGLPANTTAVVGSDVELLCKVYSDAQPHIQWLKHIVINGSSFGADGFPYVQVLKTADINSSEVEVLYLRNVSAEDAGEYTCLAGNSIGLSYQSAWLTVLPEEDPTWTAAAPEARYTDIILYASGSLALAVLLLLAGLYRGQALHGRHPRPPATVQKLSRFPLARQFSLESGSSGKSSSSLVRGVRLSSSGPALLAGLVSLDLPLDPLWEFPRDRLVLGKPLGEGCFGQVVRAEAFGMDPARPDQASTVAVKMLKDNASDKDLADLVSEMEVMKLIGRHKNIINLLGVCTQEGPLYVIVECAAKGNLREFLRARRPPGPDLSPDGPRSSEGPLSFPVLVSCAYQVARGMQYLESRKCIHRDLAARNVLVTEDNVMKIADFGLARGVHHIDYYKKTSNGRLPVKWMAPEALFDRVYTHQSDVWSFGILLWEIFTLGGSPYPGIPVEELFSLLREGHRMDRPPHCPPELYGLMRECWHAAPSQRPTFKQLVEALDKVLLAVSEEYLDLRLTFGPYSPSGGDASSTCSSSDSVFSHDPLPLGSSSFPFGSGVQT
FGFR1, sequence (P11362 22-822): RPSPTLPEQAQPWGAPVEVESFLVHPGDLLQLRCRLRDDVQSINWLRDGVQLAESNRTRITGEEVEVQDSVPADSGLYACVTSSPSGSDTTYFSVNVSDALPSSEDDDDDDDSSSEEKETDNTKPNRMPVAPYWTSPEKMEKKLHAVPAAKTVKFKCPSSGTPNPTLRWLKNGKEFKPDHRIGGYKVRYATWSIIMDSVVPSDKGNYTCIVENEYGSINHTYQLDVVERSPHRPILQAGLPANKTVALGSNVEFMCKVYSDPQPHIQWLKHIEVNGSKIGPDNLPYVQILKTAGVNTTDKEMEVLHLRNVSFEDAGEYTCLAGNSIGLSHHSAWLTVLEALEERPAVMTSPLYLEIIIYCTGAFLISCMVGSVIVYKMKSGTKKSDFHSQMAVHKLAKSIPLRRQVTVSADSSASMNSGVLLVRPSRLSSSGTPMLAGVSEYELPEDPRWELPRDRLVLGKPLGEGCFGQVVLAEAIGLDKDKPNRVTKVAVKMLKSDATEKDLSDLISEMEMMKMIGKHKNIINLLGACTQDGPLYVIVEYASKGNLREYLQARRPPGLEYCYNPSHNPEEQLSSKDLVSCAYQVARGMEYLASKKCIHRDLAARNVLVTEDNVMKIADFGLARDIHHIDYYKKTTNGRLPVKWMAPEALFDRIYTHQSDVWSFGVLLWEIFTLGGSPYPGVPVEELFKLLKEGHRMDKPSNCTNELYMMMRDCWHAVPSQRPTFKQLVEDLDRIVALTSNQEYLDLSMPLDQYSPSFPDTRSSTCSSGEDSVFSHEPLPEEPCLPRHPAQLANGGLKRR

COc1cc(OC)c(F)c(N2Cc3cnc(-c4cnn(CCCN5CCOCC5)c4)cc3C3(CC3)C2=O)c1F [Example 151, 2′-(2,6-difluoro-3,5-dimethoxyphenyl)-6′-(1-(3-morpholinopropyl)-1H-pyrazol-4-yl)-1′H-spiro[cyclopropane-1,4′-[2,7]naphthyridin]-3′(2′H)-one]
IC50 (FGFR2; pre-incubated for 4 hours): < 10 nM
FGFR1/FGFR3 IC50 ratio (FGFR3 enzyme; pre-incubated for 4 hours): >5
FGFR4/FGFR3 IC50 ratio (FGFR3 enzyme; pre-incubated for 4 hours): >5
IC50 (FGFR3 enzyme; pre-incubated for 4 hours): < 10 nM
IC50 (FGFR4; pre-incubated for 4 hours): < 10 nM
IC50 (FGFR1; [1]): < 10 nM

COc1cc(OC)c(F)c(N2Cc3cnc(-c4cn(C)nc4C)cc3N(c3ccc(CC#N)cc3)C2=O)c1F [Example 97, 2-(4-(3-(2,6-difluoro-3,5-dimethoxyphenyl)-7-(1,3-dimethyl-1H-pyrazol-4-yl)-2-oxo-3,4-dihydropyrido[4,3-d]pyrimidin-1(2H)-yl)phenyl)acetonitrile]
IC50 (FGFR2; pre-incubated for 4 hours): < 10 nM
FGFR1/FGFR3 IC50 ratio (FGFR3 enzyme; pre-incubated for 4 hours): >5
FGFR4/FGFR3 IC50 ratio (FGFR3 enzyme; pre-incubated for 4 hours): >10
IC50 (FGFR3 enzyme; pre-incubated for 4 hours): < 10 nM
IC50 (FGFR4; pre-incubated for 4 hours): 30 to 200 nM
IC50 (FGFR1; [2]): 30 to 200 nM

COc1cc(OC)c(F)c(N2Cc3cnc(-c4cn(C)nc4C)cc3N(c3ccc(F)c(F)c3)C2=O)c1F [Example 102, 3-(2,6-difluoro-3,5-dimethoxyphenyl)-1-(3,4-difluorophenyl)-7-(1,3-dimethyl-1H-pyrazol-4-yl)-3,4-dihydropyrido[4,3-d]pyrimidin-2(1H)-one]
IC50 (FGFR2; pre-incubated for 4 hours): 10 to 30 nM
FGFR1/FGFR3 IC50 ratio (FGFR3 enzyme; pre-incubated for 4 hours): >3
FGFR4/FGFR3 IC50 ratio (FGFR3 enzyme; pre-incubated for 4 hours): >10
IC50 (FGFR3 enzyme; pre-incubated for 4 hours): 10 to 30 nM
IC50 (FGFR4; pre-incubated for 4 hours): 30 to 200 nM
IC50 (FGFR1; [2]): 30 to 200 nM

COc1cc(OC)c(F)c(N2Cc3cnc(-c4csc(N(C)C)n4)cc3C3(CC3)C2=O)c1F [Example 160, 2′-(2,6-difluoro-3,5-dimethoxyphenyl)-6′-(2-(dimethylamino)thiazol-4-yl)-1′H-spiro[cyclopropane-1,4′-[2,7]naphthyridin]-3′(2′H)-one]
IC50 (FGFR2; pre-incubated for 4 hours): < 10 nM
FGFR1/FGFR3 IC50 ratio (FGFR3 enzyme; pre-incubated for 4 hours): >5
FGFR4/FGFR3 IC50 ratio (FGFR3 enzyme; pre-incubated for 4 hours): >5
IC50 (FGFR3 enzyme; pre-incubated for 4 hours): < 10 nM
IC50 (FGFR4; pre-incubated for 4 hours): 10 to 30 nM
IC50 (FGFR1; [2]): 10 to 30 nM

COc1cc(OC)c(F)c(N2Cc3cnc(-c4cc(N)ccc4C)cc3C3(CC3)C2=O)c1F [Example 1, 6′-(5-amino-2-methylphenyl)-2′-(2,6-difluoro-3,5-dimethoxyphenyl)-1′H-spiro[cyclopropane-1,4′-[2,7]naphthyridin]-3′(2′H)-one]
IC50 (FGFR2; [3]): > 200 nM
IC50 (FGFR2; pre-incubated for 4 hours): > 200 nM
IC50 (FGFR3 enzyme): > 200 nM
FGFR1/FGFR4 IC50 ratio (FGFR4; [3]): >25
FGFR2/FGFR4 IC50 ratio (FGFR4; [3]): >25
FGFR3/FGFR4 IC50 ratio (FGFR4; [3]): >50
FGFR1/FGFR4 IC50 ratio (FGFR4; pre-incubated for 4 hours): >25
FGFR2/FGFR4 IC50 ratio (FGFR4; pre-incubated for 4 hours): >25
FGFR3/FGFR4 IC50 ratio (FGFR4; pre-incubated for 4 hours): >25
IC50 (FGFR4; [3]): 30 to 200 nM
IC50 (FGFR4; pre-incubated for 4 hours): 30 to 200 nM
IC50 (FGFR1; read-out: FGFR1 IC50, pre-incubated for 5 to 10 minutes): > 200 nM
IC50 (FGFR1; [1]): > 200 nM

COc1cc(OC)c(F)c(N2Cc3cnc(-c4cn(C)nc4C)cc3N(Cc3ccc(F)c(F)c3)C2=O)c1F [Example 73, 3-(2,6-difluoro-3,5-dimethoxyphenyl)-1-(3,4-difluorobenzyl)-7-(1,3-dimethyl-1H-pyrazol-4-yl)-3,4-dihydropyrido[4,3-d]pyrimidin-2(1H)-one]
IC50 (FGFR2; pre-incubated for 4 hours): 10 to 30 nM
FGFR1/FGFR3 IC50 ratio (FGFR3 enzyme; pre-incubated for 4 hours): >5
FGFR4/FGFR3 IC50 ratio (FGFR3 enzyme; pre-incubated for 4 hours): >10
IC50 (FGFR3 enzyme; pre-incubated for 4 hours): 10 to 30 nM
IC50 (FGFR4; pre-incubated for 4 hours): 30 to 200 nM
IC50 (FGFR1; [2]): 30 to 200 nM

COc1cc(OC)c(F)c(N2Cc3cnc(-c4cn(C)nc4C)cc3N(c3cccc(-c4cnnn4C)c3)C2=O)c1F [Example 89, 3-(2,6-difluoro-3,5-dimethoxyphenyl)-7-(1,3-dimethyl-1H-pyrazol-4-yl)-1-(3-(1-methyl-1H-1,2,3-triazol-5-yl)phenyl)-3,4-dihydropyrido[4,3-d]pyrimidin-2(1H)-one]
IC50 (FGFR2; pre-incubated for 4 hours): < 10 nM
FGFR1/FGFR3 IC50 ratio (FGFR3 enzyme; pre-incubated for 4 hours): >5
FGFR4/FGFR3 IC50 ratio (FGFR3 enzyme; pre-incubated for 4 hours): >10
IC50 (FGFR3 enzyme; pre-incubated for 4 hours): < 10 nM
IC50 (FGFR4; pre-incubated for 4 hours): 30 to 200 nM
IC50 (FGFR1; [2]): 10 to 30 nM

COc1cc(OC)c(F)c(N2Cc3cnc(-c4ccc(C5(C#N)CCC5)nc4)cc3N(Cc3nnc(C)o3)C2=O)c1F [Example 187, 1-(5-{3-(2,6-difluoro-3,5-dimethoxyphenyl)-1-[(5-methyl-1,3,4-oxadiazol-2-yl)methyl]-2-oxo-1,2,3,4-tetrahydropyrido[4,3-d]pyrimidin-7-yl}pyridin-2-yl)cyclobutanecarbonitrile]
IC50 (FGFR2; [3]): < 10 nM
IC50 (FGFR2; pre-incubated for 4 hours): < 10 nM
FGFR1/FGFR3 IC50 ratio (FGFR3 enzyme; pre-incubated for 4 hours): >10
FGFR4/FGFR3 IC50 ratio (FGFR3 enzyme; pre-incubated for 4 hours): >10
IC50 (FGFR3 enzyme; [3]): < 10 nM
IC50 (FGFR3 enzyme; pre-incubated for 4 hours): < 10 nM
IC50 (FGFR4; [3]): 30 to 200 nM
IC50 (FGFR4; pre-incubated for 4 hours): 30 to 200 nM
IC50 (FGFR1; FGFR1 IC50 (nM), pre-incubated for 5 to 10 minutes): 10 to 30 nM
IC50 (FGFR1; [2]): 30 to 200 nM

COc1cc(OC)c(F)c(N2Cc3cnc(-c4cn(C)nc4C)cc3N(c3ccc4cn[nH]c4c3)C2=O)c1F [Example 133, 3-(2,6-difluoro-3,5-dimethoxyphenyl)-7-(1,3-dimethyl-1H-pyrazol-4-yl)-1-(1H-indazol-6-yl)-3,4-dihydropyrido[4,3-d]pyrimidin-2(1H)-one]
IC50 (FGFR2; pre-incubated for 4 hours): < 10 nM
FGFR1/FGFR3 IC50 ratio (FGFR3 enzyme; pre-incubated for 4 hours): >3
FGFR4/FGFR3 IC50 ratio (FGFR3 enzyme; pre-incubated for 4 hours): >5
IC50 (FGFR3 enzyme; pre-incubated for 4 hours): < 10 nM
IC50 (FGFR4; pre-incubated for 4 hours): 30 to 200 nM
IC50 (FGFR1; [2]): 10 to 30 nM

COc1cc(OC)c(F)c(N2Cc3cnc(-c4cnn(C5CCN(S(C)(=O)=O)C5)c4)cc3C3(CC3)C2=O)c1F (stereo not drawn) [Example 147, 2′-(2,6-difluoro-3,5-dimethoxyphenyl)-6′-(1-(1-(methylsulfonyl)pyrrolidin-3-yl)-1H-pyrazol-4-yl)-1′H-spiro[cyclopropane-1,4′-[2,7]naphthyridin]-3′(2′H)-one]
IC50 (FGFR2; pre-incubated for 4 hours): < 10 nM
FGFR1/FGFR3 IC50 ratio (FGFR3 enzyme; pre-incubated for 4 hours): >10
FGFR4/FGFR3 IC50 ratio (FGFR3 enzyme; pre-incubated for 4 hours): >3
IC50 (FGFR3 enzyme; pre-incubated for 4 hours): < 10 nM
IC50 (FGFR4; pre-incubated for 4 hours): < 10 nM
IC50 (FGFR1; [2]): 10 to 30 nM

CCc1cnc(N2C(=O)N(c3c(F)c(OC)cc(OC)c3F)Cc3cnc(-c4cn(C)nc4C)cc32)cn1 [Example 106, 3-(2,6-difluoro-3,5-dimethoxyphenyl)-7-(1,3-dimethyl-1H-pyrazol-4-yl)-1-(5-ethylpyrazin-2-yl)-3,4-dihydropyrido[4,3-d]pyrimidin-2(1H)-one]
IC50 (FGFR2; pre-incubated for 4 hours): 30 to 200 nM
FGFR1/FGFR3 IC50 ratio (FGFR3 enzyme; pre-incubated for 4 hours): >3
FGFR4/FGFR3 IC50 ratio (FGFR3 enzyme; pre-incubated for 4 hours): >5
IC50 (FGFR3 enzyme; pre-incubated for 4 hours): 10 to 30 nM
IC50 (FGFR4; pre-incubated for 4 hours): 30 to 200 nM
IC50 (FGFR1; [2]): 30 to 200 nM

COc1cc(OC)c(F)c(N2Cc3cnc(-c4cn(C)nc4C)cc3N(c3ccc4[nH]ncc4c3)C2=O)c1F [Example 134, 3-(2,6-difluoro-3,5-dimethoxyphenyl)-7-(1,3-dimethyl-1H-pyrazol-4-yl)-1-(1H-indazol-5-yl)-3,4-dihydropyrido[4,3-d]pyrimidin-2(1H)-one]
IC50 (FGFR2; pre-incubated for 4 hours): < 10 nM
FGFR1/FGFR3 IC50 ratio (FGFR3 enzyme; pre-incubated for 4 hours): >3
FGFR4/FGFR3 IC50 ratio (FGFR3 enzyme; pre-incubated for 4 hours): >5
IC50 (FGFR3 enzyme; pre-incubated for 4 hours): < 10 nM
IC50 (FGFR4; pre-incubated for 4 hours): 30 to 200 nM
IC50 (FGFR1; [2]): 10 to 30 nM

COc1cc(OC)c(F)c(N2Cc3cnc(-c4cn(CC(=O)N5CCOCC5)nc4C)cc3C3(CC3)C2=O)c1F [Example 159, 2′-(2,6-difluoro-3,5-dimethoxyphenyl)-6′-(3-methyl-1-(2-morpholino-2-oxoethyl)-1H-pyrazol-4-yl)-1′H-spiro[cyclopropane-1,4′-[2,7]naphthyridin]-3′(2′H)-one]
IC50 (FGFR2; pre-incubated for 4 hours): 10 to 30 nM
FGFR1/FGFR3 IC50 ratio (FGFR3 enzyme; pre-incubated for 4 hours): >5
FGFR4/FGFR3 IC50 ratio (FGFR3 enzyme; pre-incubated for 4 hours): >3
IC50 (FGFR3 enzyme; pre-incubated for 4 hours): 10 to 30 nM
IC50 (FGFR4; pre-incubated for 4 hours): 30 to 200 nM
IC50 (FGFR1; [2]): 30 to 200 nM

COc1cc(OC)c(F)c(N2Cc3cnc(-c4nn(CC5CCOCC5)cc4C#N)cc3C3(CC3)C2=O)c1F [Example 173, 3-(2′-(2,6-difluoro-3,5-dimethoxyphenyl)-3′-oxo-2′,3′-dihydro-1′H-spiro[cyclopropane-1,4′-[2,7]naphthyridine]-6′-yl)-1-((tetrahydro-2H-pyran-4-yl)methyl)-1H-pyrazole-4-carbonitrile]
IC50 (FGFR2; pre-incubated for 4 hours): > 200 nM
IC50 (FGFR3 enzyme; pre-incubated for 4 hours): > 200 nM
FGFR1/FGFR4 IC50 ratio (FGFR4; pre-incubated for 4 hours): >100
FGFR2/FGFR4 IC50 ratio (FGFR4; pre-incubated for 4 hours): >100
FGFR3/FGFR4 IC50 ratio (FGFR4; pre-incubated for 4 hours): >50
IC50 (FGFR4; pre-incubated for 4 hours): 10 to 30 nM
IC50 (FGFR1; [1]): > 200 nM

COc1cc(OC)c(F)c(N2Cc3cnc(-c4cn(C)nc4C)cc3N(C3CCCC3)C2=O)c1F [Example 32, 1-cyclopentyl-3-(2,6-difluoro-3,5-dimethoxyphenyl)-7-(1,3-dimethyl-1H-pyrazol-4-yl)-3,4-dihydropyrido[4,3-d]pyrimidin-2(1H)-one]
IC50 (FGFR2; pre-incubated for 4 hours): < 10 nM
FGFR1/FGFR3 IC50 ratio (FGFR3 enzyme; pre-incubated for 4 hours): >1
FGFR4/FGFR3 IC50 ratio (FGFR3 enzyme; pre-incubated for 4 hours): >5
IC50 (FGFR3 enzyme; pre-incubated for 4 hours): < 10 nM
IC50 (FGFR4; pre-incubated for 4 hours): 10 to 30 nM
IC50 (FGFR1; [2]): 10 to 30 nM
